Series [1] has as its target T1, Recombinant human GST M1-1 (Homo sapiens, UniProt P09488).
T1 construct: purchased EMD Biosciences, Inc., San Diego, Calif., U.S.A
T1 sequence (P09488 2-218 limits assumed): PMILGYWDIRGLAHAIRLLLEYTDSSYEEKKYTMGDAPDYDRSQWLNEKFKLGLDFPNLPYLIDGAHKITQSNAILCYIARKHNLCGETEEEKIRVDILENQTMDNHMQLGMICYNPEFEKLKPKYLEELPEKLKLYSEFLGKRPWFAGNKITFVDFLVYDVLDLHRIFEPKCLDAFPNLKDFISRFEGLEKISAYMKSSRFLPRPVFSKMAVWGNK
The experiment in a line: Inhibition of glutathione S-transferase isoenzyme GST M1-1. In kind it is biochemical. As to the method: (§1) Inhibition of glutathione S-transferase isoenzymes.
(§2) For each assay, the test compound and GSH were added to the isoenzyme. Immediately after the addition of CDNB solution to the isoenzyme/compound/GSH solution, the absorbance at 340 nm was recorded continuously for 5 min on a SpectraMax plate reader (Molecular Devices, Inc., Sunnyvale, Calif., U.S.A.). The GST inhibitory activity of each compound was calculated from the slopes of the absorbance/time curves at the various concentrations of test compound. All assays were conducted in duplicate wells, with DMSO control, with the final DMSO concentration maintained at 2%.

Series [2] concerns the target T2, Recombinant human GST P1-1 (Homo sapiens, UniProt P09211).
T2 construct: purchased EMD Biosciences, Inc., San Diego, Calif., U.S.A
Particulars: background statement; read-out: GST P1-1 IC50 (related art statement); cited from earlier work.

Series [3] deals with T3, GSTπ (Homo sapiens, UniProt P09211).
T3 construct: endogenous in cells; host or cells: HL-60 (human promyeloid myelocytic leukemia)
The experiment in a line: GSTπ immunoprecipitation assay in HL60 cells. In kind it is cell-based. Conditions: HL-60, read-out: GSTπ inhibition, %. As to the method:
In vitro example 3. GSTπ immunoprecipitation assay. This example illustrates the beneficial effects of compounds of this invention in causing GSTπ immunoprecipitation. […] HL60 cells were seeded at 6×10^5 cells/mL in 20 mL RPMI-1640 medium supplemented with 10% fetal bovine serum, 1 mM glutamine and 20 μM gentamycin in a T75 flask and cultured overnight in 5% CO2 atmosphere at 37° C. […] Following the treatment, the cells were collected by centrifugation and washed twice with phosphate-buffered saline. The cell pellets were resuspended in 1 mL lysis buffer (50 mM Tris, pH 8.0, 120 mM NaCl, 0.5% NP-40 surfactant, 100 mM NaF; to which protease and phosphatase inhibitors (Roche Diagnostics, Indianapolis, Ind., U.S.A.) had been added before use) and incubated with gentle agitation for 30 minutes at 4° C. The cell lysates were cleared by centrifugation at 13,000 rpm for 10 minutes to remove cell debris. […] Following overnight incubation at 4° C., 30 μL of Protein A/G agarose beads (Pierce, Rockford, Ill.) were added to the mixture and incubated for 1 hour at 4° C. […] GSTπ protein bands were visualized and band intensity quantified on Odyssey infrared scanner (Li-Cor, Lincoln, Nebr., U.S.A.). The band intensity from a compound treatment was compared to its corresponding DMSO control and expressed as percent inhibition.

In series [4] the target is T4, Recombinant human GST A1-1 (Homo sapiens, UniProt P08263).
T4 construct: purchased EMD Biosciences, Inc., San Diego, Calif., U.S.A
T4 sequence (P08263 1-222): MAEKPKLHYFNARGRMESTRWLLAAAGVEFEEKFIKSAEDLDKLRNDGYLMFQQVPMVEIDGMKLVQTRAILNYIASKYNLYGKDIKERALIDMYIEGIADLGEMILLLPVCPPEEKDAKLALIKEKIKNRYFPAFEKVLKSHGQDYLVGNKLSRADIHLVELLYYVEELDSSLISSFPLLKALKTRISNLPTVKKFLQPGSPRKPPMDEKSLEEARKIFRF
Put plainly: Inhibition of glutathione S-transferase isoenzyme GST A1-1. Format: biochemical. The procedure: as §1, §2

Series [5] addresses T2, Recombinant human GST P1-1. The experiment in a line: Inhibition of glutathione S-transferase isoenzyme GST P1-1. Format: biochemical. The procedure:
as §1, §2

The subject of series [6] is HL-60 human leukemia cell line. Put plainly: Cytotoxicity in HL-60 cells (CellTiter-Glo). Conditions: read-out: HL-60 CC50 (concentration that causes 50% growth inhibition); diethyl ester compounds (1B to 12B, TLK199); 72 hours. For orientation: ATP-based viability assays read luminescence as a measure of living cells.
Procedure: Cytotoxicity in HL-60 cells.
The cells were then incubated for 72 hours (approximately three doubling times). The cells were then harvested by centrifugation (1200 rpm for 5 min at 20° C.), and 100 μL of the culture supernatant was removed and replaced by the same volume of the CellTiter-Glo reagent. After incubation for 10 minutes at room temperature with constant mixing, the plate was read with a luminometer, with the number of live cells being proportional to the observed luminescence. All assays were conducted in triplicate wells, with DMSO solvent control.
For series [7] the following is noted: normal animals and animals depleted by cisplatin or fluorouracil; cited from earlier work.
The conditions of series [8]: Phase II, MDS, interim results; cited from earlier work.
Series [9] relates to HL-60 cells. Particulars: background statement; cited from earlier work.
Series [10] concerns HL-60 cells. Put plainly: Enhancement of differentiation of HL-60 cells (CD11b expression, flow cytometry). In kind it is cell-based, human. Particulars: diethyl ester compounds; 24 hours; CD11b expression vs DMSO control. The procedure:
Some of the diethyl ester compounds of this invention were also tested for their ability to enhance the differentiation of HL-60 cells. This illustrates the beneficial effect of the compounds of this invention in stimulating differentiation of the HL-60 human leukemia cell line in vitro. […] The cells were harvested by centrifugation (1250 rpm for 5 min at 20° C.) and washed with 2 mL ice-cold phosphate-buffered saline (PBS) containing 2% FBS, then stained with 10 μL phycoerythrin-conjugated anti-CD11b antibody or 10 μL phycoerythrin-conjugated isotype control antibody. After standing for 30 min on ice, the cells were re-suspended in 2 mL ice-cold PBS containing 2% FBS. The cells were harvested by centrifugation (1250 rpm for 5 min at 20° C.) and resuspended in 0.4 mL PBS containing 2% FBS. The specific cell surface expression of CD11b, a marker for granulocytes and monocytes, was detected by flow cytometry using a FACSCalibur analyzer (BD Biosciences). All assays were conducted in triplicate, with DMSO control. The extent of differentiation was expressed as a multiple of the signal from the DMSO control.
(Flow cytometry measures light scatter and fluorescence of single cells or particles in a stream.)

Series [11] relates to hematopoietic progenitor cells. Particulars: normal human peripheral blood; cited from earlier work.
The conditions of series [12]: both in vitro and in vivo; cited from earlier work.

A word on the IC50: it is the concentration at which inhibition is half-maximal. The term inhibition denotes the relative decrease from the control value, in per cent.

Read-outs that look alike come from different tables or passages of the source. *1 amine or outer side, *2 acyl side, *3 side chain or, on linkers, in order; H or OH if unused. Where a SMILES comes first, the peptide text is derived from it. [ ]: non-standard residue; d: D form. The star is where a group is joined. γGlu = O=C(O)[C@H](CCC(=O)[*:2])N[*:1]; dPhg = N[C@@H](C(=O)O)c1ccccc1; Bn = c1ccc(C*)cc1

T2 sequence (P09211 2-210 limits assumed): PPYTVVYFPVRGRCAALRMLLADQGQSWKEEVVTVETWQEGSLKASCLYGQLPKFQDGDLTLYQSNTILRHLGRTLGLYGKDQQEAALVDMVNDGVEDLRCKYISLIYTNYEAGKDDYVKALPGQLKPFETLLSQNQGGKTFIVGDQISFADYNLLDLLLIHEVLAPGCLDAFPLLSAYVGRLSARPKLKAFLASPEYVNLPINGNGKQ
T3 sequence (P09211 2-210 limits assumed): as above

As for `N[C@@H](CCC(=O)N[C@@H](CSCc1ccccc1)C(=O)N[C@@H](C(=O)O)c1ccccc1)C(=O)O` [TLK117, L-γ-glutamyl-S-(phenylmethyl)-L-cysteinyl-D-phenylglycine] (γGlu-Cys(Bn)-[dPhg]-OH), the IC50 was 70 µM in [1], approximately 400 nM in [2], 17 µM in series [4] and 409 nM in [5]. Moreover, in series [3], the inhibition at 20 µM was 90%.
Take `N[C@@H](CCC(=O)N[C@@H](CSCc1ccc(Cl)cc1)C(=O)N[C@@H](C(=O)O)c1ccccc1)C(=O)O` [TLK137]: the IC50 is 6.5 µM in series [1] (diacid compounds, GSH and CDNB at 2×Km, pH 6.5, read-out: GST M1-1 IC50); 10 µM in series [4] (diacid compounds, GSH and CDNB at 2×Km, pH 6.5, read-out: GST A1-1 IC50); 52 nM in series [5] (diacid compounds (1A to 12A, TLK117, TLK137), GSH and CDNB at 2×Km, pH 6.5). Further, the CC50 in series [6] is 10 µM.
With `CCOC(=O)[C@@H](N)CCC(=O)N[C@@H](CSCc1ccccc1)C(=O)N[C@@H](C(=O)OCC)c1ccccc1` [TLK199], in series [7], the “White blood cell production” value is “increase white blood cell production”. In series [8], the Hematologic improvement entry is “multilineage hematologic improvement” and the Tolerability result was “well tolerated”. Moreover, the “Differentiation of HL-60 promyelocytic leukemia cells in vitro” value in series [9] was “induce the differentiation”. In series [10], the “Enhancement of differentiation of HL-60 cells” value is on record as “enhances differentiation”. Moreover, the “Colony formation of hematopoietic progenitor cells” value in series [11] is on record as “stimulate colony formation of all three lineages”. Besides, in [12], the “Potentiation of the activity of cytotoxic agents” value is listed as “potentiate the activity of cytotoxic agents”.

These data come from patent US7129215B2, “Tripeptide and tetrapeptide thioethers” (Telik, Inc., priority 2005, dated 2006).
